We go through 10 compounds from patent publication US20050228180A1, “Alpha, omega-dicarboximide derivatives as useful uro-selective a1a adrenoceptor blockers” (priority 2002, published 2005).

The target in one test is T1, α1B adrenoceptor (Rattus norvegicus, UniProt P15823).
T1 construct: from tissue; host or cells: rat liver membranes
T1 sequence (P15823 1-515): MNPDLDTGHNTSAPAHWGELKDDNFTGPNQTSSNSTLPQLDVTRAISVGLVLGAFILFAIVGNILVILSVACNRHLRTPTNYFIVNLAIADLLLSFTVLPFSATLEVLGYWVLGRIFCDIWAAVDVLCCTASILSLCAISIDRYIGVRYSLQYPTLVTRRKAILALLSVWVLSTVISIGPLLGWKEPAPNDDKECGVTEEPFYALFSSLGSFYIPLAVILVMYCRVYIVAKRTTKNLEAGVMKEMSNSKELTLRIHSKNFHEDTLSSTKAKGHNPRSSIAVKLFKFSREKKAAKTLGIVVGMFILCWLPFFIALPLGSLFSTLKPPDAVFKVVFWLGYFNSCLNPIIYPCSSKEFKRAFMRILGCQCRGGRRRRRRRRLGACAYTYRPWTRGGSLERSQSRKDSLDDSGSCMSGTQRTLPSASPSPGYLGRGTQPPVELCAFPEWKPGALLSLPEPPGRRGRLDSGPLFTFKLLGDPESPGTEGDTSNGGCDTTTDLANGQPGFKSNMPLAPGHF
As to the kind of experiment: Radioligand binding, [3H] prazosin displacement, rat liver membranes. The settings on record: read-out: Affinity (Ki) α1B (Rat Liver). An outline of the steps: (§1)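 Displacement of [3H]prazosin measured by filtration and counting, with Ki from IC50 via Cheng–Prusoff and nonspecific binding set by 300 nM prazosin. Native rat submaxillary (α1A) or liver (α1B) membranes, 150-250 μg protein, 1 h at 24-25° C in Tris/EDTA pH 7.4.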

The target of the next test is T2, α1A adrenoceptor (Rattus norvegicus, UniProt P43140).
T2 construct: from tissue; host or cells: rat submaxillary gland membranes
T2 sequence (P43140 1-466): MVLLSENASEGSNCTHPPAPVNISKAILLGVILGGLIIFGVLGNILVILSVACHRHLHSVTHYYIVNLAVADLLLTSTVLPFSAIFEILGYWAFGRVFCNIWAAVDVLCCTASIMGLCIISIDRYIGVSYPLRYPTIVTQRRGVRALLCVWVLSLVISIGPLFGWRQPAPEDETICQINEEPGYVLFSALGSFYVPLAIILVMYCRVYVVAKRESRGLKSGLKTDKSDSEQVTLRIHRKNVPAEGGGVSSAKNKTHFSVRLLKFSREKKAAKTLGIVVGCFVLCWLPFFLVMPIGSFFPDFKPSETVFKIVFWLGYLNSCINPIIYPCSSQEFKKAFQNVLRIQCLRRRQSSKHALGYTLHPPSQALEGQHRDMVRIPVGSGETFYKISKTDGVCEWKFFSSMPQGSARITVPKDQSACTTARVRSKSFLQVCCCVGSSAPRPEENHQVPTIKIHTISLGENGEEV
As to the kind of experiment: Radioligand binding, [3H] prazosin displacement, rat submaxillary membranes. The settings on record: for Ki: [3H] prazosin displacement, rat submaxillary membranes, read-out: Affinity (Ki) α1A (Rat Submaxillary); for α1B/α1A: ratio of binding affinities, rat liver / rat submaxillary. The method, boiled down:
as §1

Test [1] concerns the target T3, α1A adrenoceptor (prostate) (Rattus norvegicus, UniProt P43140).
T3 construct: from tissue; host or cells: isolated prostate tissue
T3 sequence (P43140 1-466): T2 sequence (P43140 1-466)
Briefly: In vitro functional assay, isolated prostate, phenylepinephrine contraction. The class given is cell-based. The settings on record: for Selectivity α1B/α1A / Selectivity α1D/α1A: functional, from pKB; for Kb: rat prostate, phenylepinephrine, read-out: α Adrenoceptor Subtype (pKB) α1A (converted). The text has this: (§2) In order to study selectivity of action of these compounds towards different a-adrenoceptor subtypes, the ability of these compounds to antagonise (α1D) prostate (α1A) and spleen (α1B) was studied. Aorta and spleen tissues were isolated from urethane anaesthetized (1.5 g/kg) male wister rats. Isolated tissues were mounted in organ bath containing Krebs Henseleit buffer of the following composition (mM): NaCl 118; KCl 4.7; CaCl2 2.5; MgSO4 7H2O 1.2; NaHCO3 25; KH2PO4 1.2; glucose 11.5. Buffer was maintained at 37° C. and aereated with a mixture of 95% O2 and 5% CO2. A resting tension of 2 g (aorta) or 1 g (spleen and prostate) was applied to tissues. Contractile response was monitored using a force displacement transducer and recorded on chart recorders. Tissues were allowed to equilibrate for 2 hours. At the end of equilibration period, concentration response curves to norepinephrine (aorta) and phenylepinephrine (spleen and prostate) were obtained in the absence and presence of tested compound (at concentration of […]). Antagonist affinity was calculated and expressed as pKB values in Table II.

Another test deals with T4, α1D adrenoceptor (aorta) (Rattus norvegicus, UniProt P23944).
T4 construct: Isolated tissues were mounted in organ bath containing Krebs Henseleit buffer; from tissue; host or cells: isolated rat aorta
T4 sequence (P23944 1-561): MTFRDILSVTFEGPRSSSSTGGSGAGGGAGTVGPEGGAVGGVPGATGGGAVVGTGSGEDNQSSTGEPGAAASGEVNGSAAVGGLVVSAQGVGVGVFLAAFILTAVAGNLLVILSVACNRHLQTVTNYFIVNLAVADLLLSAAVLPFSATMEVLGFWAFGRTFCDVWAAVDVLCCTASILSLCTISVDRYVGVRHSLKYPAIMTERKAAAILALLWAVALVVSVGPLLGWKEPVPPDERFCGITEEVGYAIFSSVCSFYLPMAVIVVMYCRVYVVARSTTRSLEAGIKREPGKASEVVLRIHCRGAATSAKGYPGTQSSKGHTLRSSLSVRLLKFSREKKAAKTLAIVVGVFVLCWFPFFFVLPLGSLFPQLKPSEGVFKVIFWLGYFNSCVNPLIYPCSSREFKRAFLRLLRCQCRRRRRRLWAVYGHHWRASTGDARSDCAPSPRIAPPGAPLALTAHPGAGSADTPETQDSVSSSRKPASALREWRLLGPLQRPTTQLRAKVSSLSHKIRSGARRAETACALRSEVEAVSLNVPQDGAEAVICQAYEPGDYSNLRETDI
Briefly: In vitro functional assay, isolated aorta, norepinephrine contraction. The format is cell-based. The following applies: read-out: α Adrenoceptor Subtype (pKB) α1D (converted).
From the text: as §2

The target of test [2] is T5, α1B adrenoceptor (spleen) (Rattus norvegicus, UniProt P15823).
T5 construct: Isolated tissues were mounted in organ bath containing Krebs Henseleit buffer; from tissue; host or cells: isolated rat spleen
T5 sequence (P15823 1-515): T1 sequence (P15823 1-515)
Briefly: In vitro functional assay, isolated spleen, phenylepinephrine contraction. The settings on record: read-out: α Adrenoceptor Subtype (pKB) α1B (converted). The format is cell-based.
From the text: as §2

A word on the Ki: it is a dissociation constant, usually derived from enzyme kinetics or from competition with a known ligand.

Where a name gives a salt, the structure may show the parent alone.

Turning to `CCOc1ccccc1N1CCN(CCCN2C(=O)C3CC(O)C(O)CC3C2=O)CC1` (stereo not drawn) [Compound No. 12, 2-[3-{4-(2-Ethoxyphenyl)piperazin-1-yl}propyl]-5,6-dihydroxy-3a,4,5,6,7,7a-hexahydro-1H-isoindole-1,3(2H)-dione], the Ki on α1B adrenoceptor was 118 nM. At α1A adrenoceptor, the Ki is 1.7 nM and the α1B/α1A came to 69. In addition, in test [1], the “Selectivity α1B/α1A” value is listed as 60, the “Selectivity α1D/α1A” value is listed as 4.2 and the Kb is 1.66 nM. Moreover, the Kb at α1D adrenoceptor (aorta) was 6.92 nM. For the same compound, in test [2], the Kb is 100 nM.
As for `CCOc1ccccc1[N+]1([O-])CC[N+]([O-])(CCCN2C(=O)C3CC=CCC3C2=O)CC1` (stereo not drawn) [Compound No. 10, 2-[3-{4-(2-Ethoxyphenyl)piperazin-1-yl, 1,4-N,N-dioxide}propyl]-3a,4,7,7a-tetrahydro-1H-isoindole-1,3(2H)-dione], the inhibition constant Ki on α1B adrenoceptor and at α1A adrenoceptor was greater than 1000 nM each time. Also, the “Selectivity α1B/α1A” value in test [1] is given as 13. Also, in test [1], the “Selectivity α1D/α1A” value is 40. Also, the figures for the Kb (in test [1]; at α1D adrenoceptor (aorta); in test [2]) were 1.48 nM, 58.9 nM and 18.6 nM, respectively.
With `CC(C)Oc1ccccc1N1CCN(CCCN2C(=O)C3CC(O)C(O)CC3C2=O)CC1` (stereo not drawn) [Compound No. 13, 2-[3-{4-(2-Isopropoxyphenyl)piperazin-1-yl}propyl]-5,6-dihydroxy-3a,4,5,6,7,7a-hexahydro-1H-isoindole-1,3(2H)-dione], at α1B adrenoceptor, the inhibition constant Ki was found to be 85 nM. Besides, on α1A adrenoceptor, the Ki worked out at 0.36 nM and the α1B/α1A stood at 236. In addition, in test [1], the “Selectivity α1B/α1A” value was 17, the “Selectivity α1D/α1A” value is listed as 0.7 and the Kb is 3.24 nM. For the same compound, the Kb on α1D adrenoceptor (aorta) was 2.29 nM. In addition, the Kb in test [2] was 55 nM.
For the compound `CC(C)Oc1ccccc1[N+]1([O-])CC[N+]([O-])(CCCN2C(=O)C3CC=CCC3C2=O)CC1` (stereo not drawn) [compound 09, 2-[3-{4-(2-Isopropoxyphenyl)piperazin-1-yl, 1,4-N,N-dioxide}propyl]-3a,4,7,7a-tetrahydro-1H-isoindole-1,3-(2H)-dione], the inhibition constant (Ki) was greater than 1000 nM on α1B adrenoceptor and 1070 nM at α1A adrenoceptor. Further, in test [1], the “Selectivity α1B/α1A” value worked out at 3.3. Also, the “Selectivity α1D/α1A” value in test [1] is 14. For the same compound, the Kb in test [1] is 7.08 nM; on α1D adrenoceptor (aorta), 100 nM; in test [2], 23.4 nM.
`Cl.O=C1C2CCC(O)CC2C(=O)N1CCCN1CCN(c2ccccc2OCC(F)(F)F)CC1` (stereo not drawn) [Compound No. 33, 2-[3-{4-(2-(2,2,2-Trifluoroethoxy)phenyl)piperazin-1-yl}propyl]-5-hydroxy-3a,4,5,6,7,7a-hexahydro-1H-isoindole-1,3(2H)-dione hydrochloride]: the Ki on α1B adrenoceptor came out at 34 nM. In addition, at α1A adrenoceptor, the inhibition constant (Ki) came out at 0.24 nM and the α1B/α1A was determined as 142. In test [1], the “Selectivity α1B/α1A” value is recorded as 18, the “Selectivity α1D/α1A” value amounted to 2.6 and the Kb is 0.603 nM. The Kb on α1D adrenoceptor (aorta) is 1.58 nM. Besides, the Kb in test [2] is 11 nM.
In the case of `CCOc1ccccc1N1CCN(CC(O)CN2C(=O)C3CC=CCC3C2=O)CC1` (stereo not drawn) [Compound No. 11, 2-[3-{4-(2-Ethoxyphenyl)piperazin-1-yl}-2-hydroxypropyl]-3a,4,7,7a-tetrahydro-1H-isoindole-1,3-(2H)-dione hydrochloride], the inhibitory constant (Ki) at α1B adrenoceptor was determined as 191 nM. Besides, on α1A adrenoceptor, the inhibition constant (Ki) worked out at 6.4 nM and the α1B/α1A is 30. For the same compound, in test [1], the “Selectivity α1B/α1A” value was 0.1, the “Selectivity α1D/α1A” value is 0.5 and the Kb is 7.24 nM. Besides, on α1D adrenoceptor (aorta), the Kb is 3.72 nM. For the same compound, the Kb in test [2] is 0.759 nM.
Take `CC(C)Oc1ccccc1N1CCN(CCCN2C(=O)C3CC(O)C(Cl)CC3C2=O)CC1.Cl` (stereo not drawn) [Compound No. 28, 2-[3-{4-(2-Isopropoxyphenyl)piperazin-1-yl}propyl]-5-chloro-6-hydroxy-3a,4,5,6,7,7a-hexahydro-1H-isoindole-1,3(2H)-dione hydrochloride]: the inhibition constant Ki at α1B adrenoceptor turned out to be 41 nM. Also, on α1A adrenoceptor, the Ki came out at 0.24 nM and the α1B/α1A amounted to 171. In test [1], the “Selectivity α1B/α1A” value came to 45, the “Selectivity α1D/α1A” value is on record as 1.4 and the Kb was 0.977 nM. For the same compound, the Kb at α1D adrenoceptor (aorta) was 1.41 nM. Moreover, the Kb in test [2] was 43.7 nM.
`CC(C)Oc1ccccc1N1CC[N+]([O-])(CCCN2C(=O)C3CC=CCC3C2=O)CC1` (stereo not drawn) [compound 08, 2-[3-{4-(2-Isopropoxyphenyl)piperazin-1-yl, 1-N-oxide}propyl]-3a,4,7,7a-tetrahydro-1H-isoindole-1,3(2H)-dione]: the Ki on α1B adrenoceptor is 4770 nM. In addition, on α1A adrenoceptor, the Ki was determined as 6.6 nM and the α1B/α1A was determined as 722. Further, in test [1], the “Selectivity α1B/α1A” value is on record as 0.24, the “Selectivity α1D/α1A” value was found to be 5.24 and the Kb is 4.17 nM. Moreover, the Kb at α1D adrenoceptor (aorta) is 21.9 nM. Further, the Kb in test [2] is 1.02 nM.
`CC(C)Oc1ccc(O)cc1N1CCN(CCCN2C(=O)C3CC=CCC3C2=O)CC1.Cl` (stereo not drawn) [Compound No. 21, 2-[3-{4-(2-Isopropoxy-5-hydroxyphenyl)piperazin-1-yl}propyl]-3a,4,7,7a-tetrahydro-1H-isoindole-1,3(2H)-dione hydrochloride]: on α1B adrenoceptor, the inhibition constant Ki was 643 nM. For the same compound, on α1A adrenoceptor, the inhibition constant Ki was 3.4 nM and the α1B/α1A amounted to 189. For the same compound, in test [1], the “Selectivity α1B/α1A” value was 15, the “Selectivity α1D/α1A” value was 5.24 and the Kb was 4.68 nM. Further, the Kb on α1D adrenoceptor (aorta) was 24.5 nM. For the same compound, in test [2], the Kb was 70.8 nM.
Consider `CC(C)Oc1cc([N+](=O)[O-])ccc1N1CCN(CCCN2C(=O)C3CC=CCC3C2=O)CC1` (stereo not drawn) [Compound No. 25, 2-[3-{4-(2-Isopropoxy-4-nitrophenyl)piperazin-1-yllpropyl]-3a,4,7,7a-tetrahydro-1H-isoindole-1,3(2H)-dione hydrochloride], for which the Ki at α1B adrenoceptor turned out to be 173 nM. At α1A adrenoceptor, the Ki worked out at 0.86 nM and the α1B/α1A is given as 201. Also, in test [1], the “Selectivity α1B/α1A” value is listed as 22, the “Selectivity α1D/α1A” value is reported as 0.93 and the Kb is 4.57 nM. Besides, the Kb on α1D adrenoceptor (aorta) is 4.27 nM. The Kb in test [2] was 100 nM.
